For this assay, the system named is recombinant rabies virus strain 1088 expressing gaussia luciferase (1088/GLuc). The assay can be described thus: microbe, parasite or virus in culture. The class given is cell-based. Particulars: Lyssavirus rabies, N2a, 72 h, read-out: RABV IC50 (concentration required to inhibit the relative light units by 50%).

For 1 compound, IC50 results are on record in paper PMC8677773, “Comprehensive exploration of chemical space using trisubstituted carboranes” (Scientific Reports, 2021).

`NC(=O)c1nc(F)c[nH]c1=O` [Favipiravir]: the IC50 was 38 µM.
